Test results from patent publication US20180370927A1, “MICROBIOCIDAL OXADIAZOLE DERIVATIVES” (SYNGENTA PARTICIPATIONS AG, priority 2015, published 2018).
Blank lines part the entries; values can stand above or below the compound they belong to.

Legend:
[1] = system: Puccinia recondita f. Sp. Tritici; experiment: Puccinia recondita f. sp. tritici / wheat / leaf disc preventative (brown rust); format: in vivo; conditions: foliar, 200 ppm in the applied formulation, wheat leaf segments, preventative, assessed 7 to 9 days after application, read-out: disease control compared to untreated control leaf disks
Outline: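 Wheat cv. Kanzler leaf segments on agar sprayed with formulated compound in water, inoculated with rust spores 1 day later. Incubated at 19° C, 75% rh, 12 h light/12 h dark; percent disease control versus untreated scored 7 to 9 days after application; tested at 200 ppm.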

Phakopsora pachyrhizi = Phakopsora pachyrhizi / soybean / leaf disc preventative (Asian soybean rust); format: in vivo; conditions: foliar, 200 ppm in the applied formulation, soybean leaf disks, assessed 12 to 14 days after application, read-out: disease control compared to untreated control leaf disks
Outline: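 Soybean leaf discs on water agar were sprayed with formulated compound diluted in water, then inoculated one day later with spore suspension on the lower leaf surface. Held 24-36 h dark at 20° C., 75% RH, then 12 h light/day; percent disease control versus untreated scored 12 to 14 days after application.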

[2] = system: Glomerella lacenarium (Colletotrichum lacenarium); experiment: Glomerella lacenarium (Colletotrichum lacenarium) liquid culture / cucumber / preventative (anthracnose); format: cell-based; conditions: 20 ppm in the applied formulation, liquid culture in PDB, 24° C., 3 to 4 days after application, read-out: disease control (inhibition of growth, photometric) compared to untreated control
Outline: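 Cryostored conidia in potato dextrose broth added to DMSO compound solution in microtiter plates, incubated at 24° C. Growth inhibition read photometrically 3 to 4 days after application, as percent control versus untreated check; compounds tested at 20 ppm.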

Uromyces viciae-Fabae = experiment: Uromyces viciae-fabae / field bean / leaf disc preventative (faba-bean rust); format: in vivo; conditions: foliar, 288 h, 100 ppm in the applied formulation, field bean leaf discs, assessed 12 days after application, read-out: disease control compared to untreated control leaf discs
Experimental: Leaf disks or leaf segments of various plant species are cut from plants grown in a greenhouse. The cut leaf disks or segments are placed in multiwell plates (24-well format) onto water agar. The leaf disks are sprayed with a test solution before (preventative) or after (curative) inoculation. Compounds to be tested are prepared as DMSO solutions (max. 10 mg/mL) which are diluted to the appropriate concentration with 0.025% Tween20 just before spraying. The inoculated leaf disks or segments are incubated under defined conditions (temperature, relative humidity, light, etc.) according to the respective test system. A single evaluation of disease level is carried out 3 to 14 days after inoculation, depending on the pathosystem. Percent disease control relative to the untreated check leaf disks or segments is then calculated.
Example 5: Fungicidal Activity Against Uromyces viciae-Fabael Field Bean/Leaf Disc Preventative (Faba-Bean Rust)
Field bean leaf discs are placed on water agar in multiwell plates (96-well format) and 10 μL of the formulated test compound diluted in acetone and a spreader pipetted onto the leaf disc. Two hours after application leaf discs are inoculated by spraying a spore suspension on the lower leaf surface. The leaf discs are incubated in a climate cabinet at 22° C. with 18 hour days and 70% relative humidity. The activity of a compound is assessed as percent disease control compared to untreated when an appropriate level of disease damage appears in untreated check leaf disks (12 days after application).
The following compounds at 100 ppm in the applied formulation give at least 80% disease control in this test when compared to untreated control leaf discs under the same conditions, which show extensive disease development.

[3] = system: Puccinia recondita f. Sp. Tritici; experiment: Puccinia recondita f. sp. tritici / wheat / leaf disc curative (brown rust); format: in vivo; conditions: foliar, 200 ppm in the applied formulation, wheat leaf segments, curative (applied 1 day after inoculation), assessed 6 to 8 days after application, read-out: disease control compared to untreated control leaf disks
Outline: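 Wheat cv. Kanzler leaf segments on agar were inoculated with spores, kept dark at 19° C, 75% RH, then sprayed with diluted formulated compound 1 day after inoculation (curative). Incubation continued at 19° C, 75% RH, 12 h light/12 h dark, with percent disease control versus untreated scored 6 to 8 days after application.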

Compound: CN(C)C(=O)C(=O)NCc1ccc(-c2noc(C(F)(F)F)n2)cc1 [Compound 4.2]
pest or weed control at 200 ppm [1]: ≥ 80%
pest or weed control at 200 ppm [3]: ≥ 80%
pest or weed control at 200 ppm (Phakopsora pachyrhizi): ≥ 80%
inhibition at 20 ppm [2]: ≥ 80%
pest or weed control at 100 ppm (Uromyces viciae-Fabae): ≥ 80%
melting point: 107 to 112 °C

Compound: CN(C)C(=O)C(=O)Nc1ccc(-c2noc(C(F)(F)F)n2)cc1 [Compound 4.1, N′,N′-dimethyl-N-[4-[5-(trifluoromethyl)-1,2,4-oxadiazol-3-yl]phenyl]oxamide]
pest or weed control at 200 ppm [1]: ≥ 80%
pest or weed control at 200 ppm [3]: ≥ 80%
pest or weed control at 200 ppm (Phakopsora pachyrhizi): ≥ 80%
inhibition at 20 ppm [2]: ≥ 80%
pest or weed control at 100 ppm (Uromyces viciae-Fabae): ≥ 80%
melting point: 127 to 130 °C

Now from value to compound, other results behind:

melting point: 163 to 165 °C
Compound: CON(C)C(=O)C(=O)Nc1ccc(-c2noc(C(F)(F)F)n2)cc1 [Compound 4.9, N′-methoxy-N′-methyl-N-[4-[5-(trifluoromethyl)-1,2,4-oxadiazol-3-yl]phenyl]oxamide]
pest or weed control at 200 ppm [1]: ≥ 80%
pest or weed control at 200 ppm (Phakopsora pachyrhizi): ≥ 80%
inhibition at 20 ppm [2]: ≥ 80%
pest or weed control at 100 ppm (Uromyces viciae-Fabae): ≥ 80%

melting point: 204 to 205 °C
Compound: COCCNC(=O)C(=O)Nc1ccc(-c2noc(C(F)(F)F)n2)cc1 [Compound 4.4, N-(2-methoxyethyl)-N′-[4-[5-(trifluoromethyl)-1,2,4-oxadiazol-3-yl]phenyl]oxamide]
pest or weed control at 200 ppm [1]: ≥ 80%
pest or weed control at 200 ppm [3]: ≥ 80%
pest or weed control at 200 ppm (Phakopsora pachyrhizi): ≥ 80%
pest or weed control at 100 ppm (Uromyces viciae-Fabae): ≥ 80%

melting point: 231 to 234 °C
Compound: CNC(=O)C(=O)Nc1ccc(-c2noc(C(F)(F)F)n2)cc1 [Compound 4.7, N-methyl-N′-[4-[5-(trifluoromethyl)-1,2,4-oxadiazol-3-yl]phenyl]oxamide]
pest or weed control at 200 ppm [1]: ≥ 80%
pest or weed control at 200 ppm [3]: ≥ 80%
pest or weed control at 200 ppm (Phakopsora pachyrhizi): ≥ 80%
pest or weed control at 100 ppm (Uromyces viciae-Fabae): ≥ 80%
